Results taken from ChEMBL document CHEMBL5365416, “Identification of Ecdysteroid Sinapate Esters with COX-2 Inhibitory Effects from Fibraurea recisa Using Molecular Networking and MS2LDA” (2023).
The source made the active and inactive calls. The rule behind the calls is not given here.

Key:
RAW264.7 [1] = experiment: Inhibition of LPS-induced COX2 protein expression in mouse RAW264.7 cells at 0.1 to 30 uM incubated for 24 hrs by Western blot analysis; type: functional, cell-based; conditions: dose 0.1-30 µM
RAW264.7 [2] = experiment: Inhibition of LPS-induced COX2 protein expression in mouse RAW264.7 cells at 1 to 30 uM incubated for 24 hrs by Western blot analysis; type: functional, cell-based; conditions: dose 1-30 µM
RAW264.7 [3] = experiment: Inhibition of LPS-induced NO production in mouse RAW264.7 cells at 30 uM relative to control; type: functional
RAW264.7 [4] = experiment: Inhibition of LPS-induced iNOS protein expression in mouse RAW264.7 cells at 30 uM incubated for 24 hrs by Western blot analysis; type: functional, cell-based

Row | Compound | inhibition (RAW264.7 [1]) | inhibition (RAW264.7 [2]) | inhibition at 30 µM (RAW264.7 [3]) | inhibition (RAW264.7 [4])
1 | COC(=O)/C=C/c1cc(OC)c(O)c(OC)c1 | inactive |  |  | 
2 | C[C@H](C[C@@H](O)[C@](C)(O)[C@H]1CC[C@@]2(O)C3=CC(=O)[C@@H]4C[C@@H](O)[C@@H](O)C[C@]4(C)[C@H]3CC[C@]12C)C(C)(C)O | inactive |  |  | 
3 | COc1cc(/C=C/C(=O)O[C@H]2C[C@@]3(C)[C@@H](C[C@H]2O)C(=O)C=C2[C@@H]3CC[C@]3(C)[C@@H]([C@@](C)(O)[C@H](O)C[C@@H](C)C(C)(C)O)CC[C@@]23O)cc(OC)c1O |  | Active | 12.7% | inactive
4 | COc1cc(/C=C/C(=O)O[C@@H]2C[C@H]3C(=O)C=C4[C@H](CC[C@]5(C)[C@@H]([C@@](C)(O)[C@H](O)C[C@@H](C)C(C)(C)O)CC[C@@]45O)[C@@]3(C)C[C@@H]2O)cc(OC)c1O |  | inactive | 14.7% | inactive
